Results published in ChEMBL document CHEMBL1136579, “Determination of active components in rhubarb and study of their hydrophobicity by micellar electrokinetic chromatography” (Bioorg Med Chem Lett, 2003).

Assay: Partition coefficient of compound in octanol and water by Fragmental method of Leo/Hansch
Format: physicochemical

SMILES | logP
O=C1c2cccc(O)c2C(=O)c2c(O)cc(CO)cc21 [ALOE-EMODIN] | 2.62
Cc1cc(O)c2c(c1)C(=O)c1cccc(O)c1C2=O [CHRYSOPHANOL] | 3.39
Cc1cc(O)c2c(c1)C(=O)c1cc(O)cc(O)c1C2=O [EMODIN] | 2.87
COc1cc(O)c2c(c1)C(=O)c1cc(C)cc(O)c1C2=O [PHYSCION] | 3.65
O=C(O)c1cc(O)c2c(c1)C(=O)c1cccc(O)c1C2=O [RHEIN] | 2.37
